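Exposure lasted 48 hours, with cells grown in 96-well plates and compounds tested at five concentrations. GI50: concentration for 50% inhibition of growth.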 Active and inactive are the calls of the source. Cut-off read from the data, not from the text of the source: active = GI50 up to about 1.1 µM and inactive = higher.
Legend:
Test in all cases: DTP human tumour cell line panel, 48 h
RXF 631 = system: RXF 631
KM-20L2 = system: KM-20L2
DMS-273 = system: DMS-273
SNB-78 = system: SNB-78
M19-MEL = system: M19-MEL
DMS-114 = system: DMS-114
XF498 = system: XF498
HOP-18 = system: HOP-18
LXFL 529 = system: LXFL 529

Measured: GI50

O=[N+]([O-])c1ccc2nc(/C(=N/Nc3ccccc3)C(O)c3ccc(Cl)cc3Cl)c(O)nc2c1 (configuration not stated)
inactive: RXF 631 50.4 µM | KM-20L2 > 100 µM | DMS-273 39 µM | SNB-78 > 100 µM | M19-MEL > 100 µM | DMS-114 8.65 µM | XF498 > 100 µM | HOP-18 > 100 µM

CN(C)CCC(/C=C/c1ccccc1)=N\Nc1ccc(Cl)cc1
inactive: KM-20L2 1.56 µM | DMS-273 2.11 µM | SNB-78 6.07 µM | LXFL 529 2.84 µM | M19-MEL 6.78 µM | DMS-114 2.4 µM | HOP-18 4.69 µM

Cc1ccc(NC(=O)CC2C(=O)Nc3ccccc3[S+]2[O-])c(C)c1 (configuration not stated)
inactive: RXF 631 17.2 µM | KM-20L2 12.3 µM | DMS-273 6.15 µM | SNB-78 16.4 µM | LXFL 529 16.5 µM | M19-MEL 13.1 µM | DMS-114 7.94 µM | XF498 10.4 µM | HOP-18 28.1 µM

COC(=O)C(CCCN1C(=O)c2ccccc2C1=O)C(=O)OC
inactive: KM-20L2 > 100 µM | DMS-273 > 100 µM | SNB-78 > 100 µM | LXFL 529 > 100 µM | M19-MEL > 100 µM | DMS-114 > 100 µM | XF498 > 100 µM | HOP-18 > 100 µM

O=C1C(c2ccc([N+](=O)[O-])cc2)=[N+]([O-])c2ccccc21
inactive: DMS-273 > 10 µM | SNB-78 22.5 µM | LXFL 529 19.8 µM | M19-MEL 17.2 µM | DMS-114 10.7 µM
active: HOP-18 < 0.01 µM

COc1ccccc1-n1c(N)c2c(C)c(-c3ccccc3)[nH]c2nc1=S
inactive: KM-20L2 18.7 µM | DMS-273 > 100 µM | LXFL 529 > 100 µM | M19-MEL > 100 µM | DMS-114 > 100 µM | XF498 > 100 µM | HOP-18 4.04 µM

N#Cc1c2c(c(N=[N+]=[N-])n3c1nc1ccccc13)CCCC2
inactive: KM-20L2 2.24 µM | DMS-273 2.37 µM | SNB-78 3.56 µM | M19-MEL 1.75 µM | DMS-114 1.19 µM | XF498 1.75 µM

O=C1C=CC(=O)c2cc(Sc3ccccc3)c(=O)ccc21
inactive: RXF 631 21.7 µM | KM-20L2 20.2 µM | DMS-273 18.9 µM | SNB-78 20 µM | LXFL 529 7.43 µM | M19-MEL 16.6 µM | DMS-114 18.8 µM | HOP-18 17.9 µM

C=C1C(C)C2C(Cc3ccccc3)NC(=O)C23C(OC(C)=O)/C=C/C(C)(O)CC(C)C/C=C/C3C1O (configuration not stated)
inactive: DMS-273 6.1 µM | M19-MEL 49.1 µM | DMS-114 8.57 µM
active: KM-20L2 0.112 µM | SNB-78 0.0454 µM | XF498 0.973 µM | HOP-18 0.0324 µM

Cc1ccc(S(=O)(=O)OCC23CCC(CC2)C2CC23)cc1 (configuration not stated)
inactive: RXF 631 73.5 µM | KM-20L2 56.5 µM | DMS-273 30.1 µM | LXFL 529 68.2 µM | M19-MEL 43.2 µM | DMS-114 30.5 µM | HOP-18 > 100 µM

CCCCCCCCCCCCCC(=O)OC1C(CO)OC(=O)C1O (configuration not stated)
inactive: KM-20L2 > 100 µM | DMS-273 > 100 µM | SNB-78 > 100 µM | LXFL 529 > 100 µM | M19-MEL > 100 µM | DMS-114 > 100 µM | XF498 > 100 µM | HOP-18 > 100 µM

COc1cc2c(cc1O)CN1CCC23C=C[C@@H](O)CC13 (some centres not stated)
inactive: KM-20L2 > 100 µM | DMS-273 57.4 µM | SNB-78 > 100 µM | LXFL 529 51.3 µM | M19-MEL 38.1 µM | DMS-114 54.5 µM | HOP-18 71 µM

Cc1ccccc1NC(=O)c1cc2cc(/N=N/c3ccccc3C(=O)O)ccc2oc1=O
inactive: KM-20L2 16.9 µM | DMS-273 21 µM | M19-MEL 9.38 µM | DMS-114 14.6 µM | HOP-18 15 µM

COc1cccc(NC(=O)/C(Cc2nc3ccccc3nc2C)=N/NC(=O)C[n+]2ccccc2)c1
inactive: KM-20L2 > 100 µM | DMS-273 63.4 µM | SNB-78 > 100 µM | LXFL 529 > 100 µM | M19-MEL > 100 µM | DMS-114 > 100 µM | XF498 > 100 µM | HOP-18 > 100 µM

CCN(CC)C(=O)CC12CCCCC1=Nc1ccccc12 (configuration not stated)
inactive: RXF 631 > 100 µM | KM-20L2 > 100 µM | DMS-273 > 100 µM | SNB-78 > 100 µM | LXFL 529 > 100 µM | M19-MEL > 100 µM | XF498 > 100 µM | HOP-18 > 100 µM

CCc1cccc(C)c1NC(=O)CC1C(=O)Nc2ccccc2[S+]1[O-] (configuration not stated)
inactive: KM-20L2 30.5 µM | DMS-273 42.2 µM | SNB-78 45.2 µM | LXFL 529 66.1 µM | XF498 46.5 µM

COc1ccc(OC2(c3cc(OC)ccc3OC)OC(=O)c3ccccc32)cc1 (configuration not stated)
inactive: RXF 631 > 100 µM | KM-20L2 > 100 µM | DMS-273 > 100 µM | SNB-78 > 100 µM | LXFL 529 > 100 µM | M19-MEL > 100 µM | DMS-114 > 100 µM | HOP-18 > 100 µM

COc1cc2c(c(OC)c1OC)C(=O)NCCC2
inactive: KM-20L2 > 100 µM | DMS-273 > 100 µM | SNB-78 > 100 µM | LXFL 529 > 100 µM | M19-MEL > 100 µM | DMS-114 > 100 µM | XF498 > 100 µM | HOP-18 > 100 µM

CCCCOC(=O)NC(=O)c1cn(C2CCCCC2)c(=O)[nH]c1=O
inactive: KM-20L2 76 µM | DMS-273 > 100 µM | SNB-78 36.6 µM | LXFL 529 29 µM | M19-MEL 71.4 µM | DMS-114 39.8 µM | XF498 54.7 µM | HOP-18 19.4 µM

CC1=C(C(=O)CC(=O)C(=O)NC2C3CC4CC(C3)CC2C4)Sc2ccccc2N1 (configuration not stated)
inactive: KM-20L2 > 100 µM | DMS-273 > 100 µM | SNB-78 > 100 µM | LXFL 529 > 100 µM | M19-MEL > 100 µM | DMS-114 > 31.6 µM | XF498 > 100 µM | HOP-18 86.1 µM

COC(=O)[C@H]1[C@H]2C[C@@H]3c4[nH]c5cc(OC)ccc5c4CCN3C[C@H]2C[C@@H](OC(=O)c2cc(OC)c(OC)c(OC)c2)[C@@H]1OC [RESERPINE]
inactive: KM-20L2 16.7 µM | DMS-273 20 µM | LXFL 529 14.4 µM | M19-MEL 20.9 µM | DMS-114 15.6 µM

C/C(CC(=O)Nc1ccc(Cl)c(Cl)c1)=N/NC(=O)C[N+](C)(C)C
inactive: KM-20L2 > 100 µM | DMS-273 38.8 µM | SNB-78 > 100 µM | LXFL 529 > 100 µM | M19-MEL > 100 µM | DMS-114 21.5 µM | XF498 > 100 µM | HOP-18 > 100 µM

CNc1nnnn1C1OC(CO)C(O)C1O (configuration not stated)
inactive: RXF 631 > 100 µM | KM-20L2 > 100 µM | DMS-273 > 100 µM | SNB-78 > 100 µM | LXFL 529 > 100 µM | M19-MEL > 100 µM | DMS-114 > 100 µM | XF498 14.2 µM
